Source: ChEMBL document CHEMBL1629623, “In vitro activity of the quinolone WCK 771 against recent U.S. hospital and community-acquired Staphylococcus aureus pathogens with various resistance types” (Antimicrob Agents Chemother, 2009)
Converted amounts (≈) assume the structure as drawn. The source made the active and inactive calls. The rule behind the calls is not given here.

Columns and labels:
[1] = system: Staphylococcus aureus; assay: Antibacterial activity against hospital acquired methicillin-resistant Staphylococcus aureus after 24 hrs by CLSI method; assay type: functional
[2] = system: Staphylococcus aureus; assay: Antibacterial activity against Staphylococcus aureus after 24 hrs by CLSI method; assay type: functional
[3] = system: Staphylococcus aureus; assay: Antibacterial activity against quinolone-resistant Staphylococcus aureus after 24 hrs by CLSI method; assay type: functional
[4] = system: Staphylococcus aureus; assay: Antibacterial activity against vancomycin-resistant Staphylococcus aureus VRS5 harboring GyrA S84L, E88K and GrlA S80Y, E84G mutant after 24 hrs by CLSI method; settings: VRS5, 24 h
[5] = system: Staphylococcus aureus; assay: Antibacterial activity against methicillin-susceptible Staphylococcus aureus after 24 hrs by CLSI method; assay type: functional
[6] = system: Staphylococcus aureus; assay: Antibacterial activity against vancomycin-resistant Staphylococcus aureus VRS2 harboring GyrA S84L and GrlA S80F mutant after 24 hrs by CLSI method; assay type: functional; settings: VRS2, 24 h
[7] = system: Staphylococcus aureus; assay: Antibacterial activity against vancomycin-intermediate Staphylococcus aureus Mu50 harboring GyrA S84L and GrlA S80F mutant after 24 hrs by CLSI method; assay type: functional; settings: Mu50, 24 h
[8] = system: Staphylococcus aureus; assay: Antibacterial activity against community acquired methicillin-resistant Staphylococcus aureus after 24 hrs by CLSI method; assay type: functional
[9] = system: Staphylococcus aureus; assay: Antibacterial activity against vancomycin-resistant Staphylococcus aureus VRS1 harboring GyrA S84L and GrlA S80F mutant after 24 hrs by CLSI method; assay type: functional; settings: VRS1, 24 h
[10] = system: Staphylococcus aureus; assay: Antibacterial activity against vancomycin-resistant Staphylococcus aureus VRS3 harboring GyrA S84L and GrlA S80F, E84K mutant after 24 hrs by CLSI method; assay type: functional; settings: VRS3, 24 h
[11] = system: Staphylococcus aureus; assay: Antibacterial activity against vancomycin-intermediate Staphylococcus aureus after 24 hrs by CLSI method; assay type: functional
[12] = system: Staphylococcus aureus; assay: Antibacterial activity against vancomycin-resistant Staphylococcus aureus VRS6 harboring GyrA S84L and GrlA S80F, E84G mutant after 24 hrs by CLSI method; assay type: functional; settings: VRS6, 24 h
[13] = system: Staphylococcus aureus; assay: Antibacterial activity against vancomycin-resistant Staphylococcus aureus VRS7 harboring GyrA S84L and GrlA S80F mutant after 24 hrs by CLSI method; assay type: functional, organism-based
[14] = system: Staphylococcus aureus; assay: microbe, parasite or virus in culture; settings: Mu3, 24 h
Description: Antibacterial activity against vancomycin-intermediate Staphylococcus aureus Mu3 harboring GyrA S84L and GrlA S80F mutant after 24 hrs by CLSI method

[15] = system: Staphylococcus aureus; assay: microbe, parasite or virus in culture; settings: Staphylococcus aureus, 34, 24 h
Description: Antibacterial activity against vancomycin-susceptible methicillin-resistant Staphylococcus aureus 34 harboring GyrA S84L and GrlA S80F mutant after 24 hrs by CLSI method

[16] = system: Staphylococcus aureus; assay: Antibacterial activity against vancomycin-resistant Staphylococcus aureus VRS4 harboring GyrA S84L and GrlA S80F, E84K mutant after 24 hrs by CLSI method; assay type: functional, organism-based
[17] = system: Staphylococcus aureus; assay: microbe, parasite or virus in culture; settings: Staphylococcus aureus, 32, 24 h
Description: Antibacterial activity against vancomycin-susceptible methicillin-resistant Staphylococcus aureus 32 harboring GyrA S84L and GrlA S80Y mutant after 24 hrs by CLSI method

[18] = AUC in human at 800 mg, iv qd after 24 hrs; assay type: ADME, organism-based; set-up: dose 800 mg, time < 24 hr, route intravenous; settings: plasma
[19] = Ratio of AUC in human to MIC for Staphylococcus aureus after 24 hrs; assay type: functional

Row | Structure (SMILES) | MIC50 [1] | MIC90 [1] | MIC50 [2] | MIC90 [2] | MIC50 [3] | MIC90 [3] | MIC [4] | MIC50 [5] | MIC90 [5] | MIC [6] | MIC [7] | MIC50 [8] | MIC90 [8] | MIC [9] | MIC [10] | MIC50 [11] | MIC90 [11] | MIC [12] | further results
1 | CN[C@H](CC(C)C)C(=O)N[C@H]1C(=O)N[C@@H](CC(N)=O)C(=O)N[C@H]2C(=O)N[C@H]3C(=O)N[C@H](C(=O)N[C@H](C(=O)O)c4cc(O)cc(O)c4-c4cc3ccc4O)[C@H](O)c3ccc(c(Cl)c3)Oc3cc2cc(c3O[C@@H]2O[C@H](CO)[C@@H](O)[C@H](O)[C@H]2O[C@H]2C[C@](C)(N)[C@H](O)[C@H](C)O2)Oc2ccc(cc2Cl)[C@H]1O [VANCOMYCIN] | 1 µg/mL (≈ 0.69 µM) | 4 µg/mL (≈ 2.76 µM) | 1 µg/mL (≈ 0.69 µM) | 1 µg/mL (≈ 0.69 µM) | 1 µg/mL (≈ 0.69 µM) | 4 µg/mL (≈ 2.76 µM) | 64 µg/mL (≈ 44.2 µM) | 1 µg/mL (≈ 0.69 µM) | 1 µg/mL (≈ 0.69 µM) | 32 µg/mL (≈ 22.1 µM) | 8 µg/mL (≈ 5.52 µM) | 1 µg/mL (≈ 0.69 µM) | 1 µg/mL (≈ 0.69 µM) | 128 µg/mL (≈ 88.3 µM) | 64 µg/mL (≈ 44.2 µM) | 4 µg/mL (≈ 2.76 µM) | 4 µg/mL (≈ 2.76 µM) | 128 µg/mL (≈ 88.3 µM) | 
2 | C[C@H]1CCc2c(N3CCC(O)CC3)c(F)cc3c(=O)c(C(=O)O)cn1c23.N=C(N)NCCC[C@H](N)C(=O)O | 0.5 µg/mL | 1 µg/mL | 0.03 µg/mL | 1 µg/mL | 0.5 µg/mL | 1 µg/mL | 8 µg/mL | 0.03 µg/mL | 0.25 µg/mL | 0.5 µg/mL | 1 µg/mL | 0.03 µg/mL | 0.5 µg/mL | 0.5 µg/mL | 0.5 µg/mL | 0.25 µg/mL | 0.5 µg/mL | 0.5 µg/mL | Activity [13]: Active; MIC [14]: 1 µg/mL; MIC [15]: 0.5 µg/mL; Activity [16]: Active; MIC [17]: 0.5 µg/mL; AUC at 24 h [18]: 390 µg·h/mL; RatioAUC/MIC [19]: 58.5
